Read-outs that look alike come from different tables or passages of the source.
Columns and labels:
[1] = system: field mustard (Brassica rapa) seedlings; test: Root hair and lateral root elongation in liquid-culture grown field mustard seedlings (Example 13); settings: for Experiment A: Average Root Hair Length Per Plant (mm) / Experiment B: Average Length of Three Longest Lateral Roots Per Plant (mm) / Experiment A: Average Root Hair Length Per Plant, % of UTC / Experiment B: Average Length of Three Longest Lateral Roots Per Plant, % of UTC: field mustard seedlings, peptide 10 μM; for Experiment A: Average Root Hair Length Per Plant (mm) / Experiment B: Average Length of Three Longest Lateral Roots Per Plant (mm) / average lateral root length compared to untreated control / average root hair length compared to untreated control / increases in average lateral root length relative to control / increases in root hair length relative to control: liquid culture; for Experiment A: Average Root Hair Length Per Plant (mm) / Experiment B: Average Length of Three Longest Lateral Roots Per Plant (mm): about three days; for Experiment A: Average Root Hair Length Per Plant (mm): UTC = 0.137; for Experiment B: Average Length of Three Longest Lateral Roots Per Plant (mm): UTC = 0.632; for average lateral root length compared to untreated control / average root hair length compared to untreated control / increases in average lateral root length relative to control / increases in root hair length relative to control: approximately three days
[2] = system: HLB-infected citrus trees; design: species or system Citrus sinesis; Citrus paradisi; settings: in vivo
[3] = system: Candidatus Liberibacter asiaticus (CLas); settings: in vivo
[4] = system: HLB-infected citrus trees; test: Citrus trials of Examples 20-24: fruit yield, size, count and drop, average over orange and grapefruit trials; assay type: in vivo, Citrus sinesis; Citrus paradisi
Procedure: All fruit with a diameter greater than or equal to 1.6 inches (40 mm) were hand-picked and collected for each tree. The total “Fruit Weight” (in kilograms) per individual tree was measured and recorded. Trees with total fruit weights less than or greater than 2 standard deviations (2STDEV) from the trial mean were considered to be outliers and removed from the dataset. Fruit size was assessed as the “Average Weight per Fruit” in grams (weight of 20 random fruit per tree, divided by 20) and “Average Fruit Diameter” in millimeters, as described in Example 1. The “Average Fruit Count” per tree was assessed as the total “Fruit Weight” divided by “Average Weight per Fruit”. “Fruit Drop” was assessed as for Example 1. Fruit quality was assessed as for Example 2, with the exception that one set of fruit consisted for 15 total fruit, each corresponding to a sampling of 3 fruit from 5 trees of the same experimental treatment block. Each set of 15 fruit were weighed (gram; g) and then juiced together. Average yield, % fruit drop, fruit size, and juice quality for each of the tested compositions are described in Examples 20-24.

[5] = system: Citrus trees infected with CLas; design: species or system Citrus sinesis; settings: in vivo
[6] = system: Citrus trees infected with CLas; assay type: in vivo, Citrus x paradisi; Citrus sinesis; settings: average of 'Ruby Red' and 'Valencia'
Text: Treatments as previously described in Example 3; β-1,3-Endoglucanase from barley SEQ ID NO: 731 (Treatment 1) and Bt.4Q7Flg22 from Bacillus thurigiensis SEQ ID NO: 226 (Treatment 5) increased fruit yield (kg/tree) as described in Table 56. Fruit quality, and juice quality of ‘Valencia’ oranges are described in Table 57.
For direct comparison of the treatment results between grapefruit (‘Ruby Red’) and orange (‘Valencia’) are referenced in Table 56 above.

[7] = system: Citrus trees infected with Candidatus Liberibacter asiaticus; assay type: in vivo, Citrus x paradisi
[8] = system: Citrus trees infected with CLas; test: Recovery composition trunk injection: 'Valencia' orange fruit yield (Examples 3, 19); assay type: in vivo, Citrus sinesis; settings: for Average Yield (Relative to Untreated) / Average Yield (kg per tree): 'Valencia' orange; for Average Yield (Relative to Untreated) / Average Yield (kg per tree) / increased yield compared to the untreated control: trunk injection; for increased yield compared to the untreated control: 'Valencia' trees; for yield, average relative to control: 'Valencia', combined average of 2 sites (Table 56)
[9] = system: Citrus trees infected with Candidatus Liberibacter asiaticus (CLas); design: species or system Citrus sinensis; settings: in vivo
[10] = system: corn hybrids Beck's 6127 BHMF and 6127 DVMF; settings: in vivo
[11] = system: Citrus trees infected with Candidatus Liberibacter asiaticus; design: species or system Citrus x paradisi; settings: in vivo
[12] = system: Citrus trees infected with Candidatus Liberibacter asiaticus (CLas); design: species or system Citrus sinensis; settings: in vivo; remark: listed apart in the source

| Molecule | Experiment A: Average Root Hair Length Per Plant (mm) [1] [mm] | Experiment B: Average Length of Three Longest Lateral Roots Per Plant (mm) [1] [mm] | Experiment A: Average Root Hair Length Per Plant, % of UTC [1] | Experiment B: Average Length of Three Longest Lateral Roots Per Plant, % of UTC [1] | average lateral root length compared to untreated control [1] | average root hair length compared to untreated control [1] | further results |
| --- | --- | --- | --- | --- | --- | --- | --- |
| GGIRAAPT (listed as Physcomitrella patens) [SEQ ID NO: 745] | 0.145 | 0.853 | (105% of UTC) | (135% of UTC) | Increased | increased |  |
| GGIRTAITGNE (listed as Vigna angularis) [SEQ ID NO: 748] | 0.151 | 0.929 | (110% of UTC) | (147% of UTC) | Increased | increased |  |
| GGIRAAPTGNER (Glycine max) [GmRHPP] | 0.172 | 0.971 | (125% of UTC) | (154% of UTC) | Increased | increased | ^oBrixc:Citric Acid Ratio and pounds-solids per tree [2]: increased; more total sugar than control trees treated with surfactant alone, on average [2]: 13.500; reduction in CLas bacterial titers compared to initial levels [3]: 17%; increased yield (kg fresh fruit per tree) relative to control trees treated with surfactant control alone, on average ([4]; foliar (Table 73)): 13.9%; decrease in fruit drop relative to surfactant control, on average ([4]; foliar (Table 74)): 22%; more fruit retained at harvest relative to surfactant control, on average ([4]; foliar (Table 74)): 19%; effect on fruit size ([4]; foliar (Table 75)): no effect; fruit weigh more than fruit from control trees treated with surfactant alone, on average ([4]; foliar (Table 75)): 6.2%; increases in average lateral root length relative to control [1]: +54%; increases in root hair length relative to control [1]: +25% |
| N[C@@H](CS)C(=O)O [L-Cysteine, L-cysteine] |  |  |  |  |  |  | Average Fruit Diameter (Relative to Untreated) [5]: (104%); Average Fruit Diameter (mm) [5]: 62.52 mm; Brix:CA Ratio [5]: 12.76; Brix:CA Ratio (Relative to Untreated) [5]: (+1.51); fruit size and ^oBrixc to Citric Acid ratio (Brix:CA) relative to the untreated control [5]: increased; Average Yield (Relative to Untreated), Average of 2 sites [6]: (103%); Average Yield (Relative to Untreated) ([7]; […], trunk injection): (101%); Average Yield (kg per tree) ([7]; […], trunk injection): 34.8 kg per tree; Average Yield (Relative to Untreated) [8]: (105%); Average Yield (kg per tree) [8]: 42.3 kg per tree; increased yield compared to the untreated control [8]: +2.0 kg per tree; yield, average relative to control [8]: 103% |
| GGIRRAPTGNER [SEQ ID NO: 751] |  |  |  |  | Increased | increased |  |
| GIRDAPAGNE (listed as Macleaya cordata) [SEQ ID NO: 746] | 0.165 | 0.822 | (120% of UTC) | (130% of UTC) | Increased | increased |  |
| GGIRAAPTGKER [SEQ ID NO: 754] |  |  |  |  | Increased | increased |  |
| DRLSSGKRINSASDDAAGLAIA (listed as Bacillus thuringiensis) [Bt.4Q7Flg22, Flg22 flagellin-associated polypeptide from Bacillus thuringiensis strain 4Q7] |  |  |  |  |  |  | total increased yield (kg) per tree [9]: 33%; average yield benefit over the control corn plants [10]: +6.44 flu/Ac; Average Fruit Diameter (Relative to Untreated) [5]: (101%); Average Fruit Diameter (mm) [5]: 60.72 mm; Brix:CA Ratio [5]: 12.11; Brix:CA Ratio (Relative to Untreated) [5]: (+0.86); fruit size and ^oBrixc to Citric Acid ratio (Brix:CA) relative to the untreated control [5]: increased; Average Yield (Relative to Untreated), Average of 2 sites [6]: (113%); decreased bacterial titers relative to the untreated control [3]: 20%; reduction in CLas bacterial titers compared to initial levels [3]: 16%; Average Yield (Relative to Untreated) ([7]; in vivo): (108%); Average Yield (kg per tree) ([7]; in vivo): 37.2 kg per tree; increased yield compared to the untreated control ([7]; in vivo): 2.6 kg per tree; Average Yield (Relative to Untreated) [8]: (119%); Average Yield (kg per tree) [8]: 48.1 kg per tree; increased yield compared to the untreated control [8]: 7.8 kg per tree; yield, average relative to control [8]: 113%; fruit size, juice volume, % juice content and ^oBrixc to Citric Acid ratio (Brix:CA) relative to the untreated control [11]: increased |
| GGIRASPTGNER [SEQ ID NO: 755] |  |  |  |  | Increased | increased |  |
| GGISASPTGN (listed as Lactuca sativa) [SEQ ID NO: 749] | 0.182 | 1.058 | (132% of UTC) | (168% of UTC) | Increased | increased | increases in average lateral root length relative to control [1]: +68%; increases in root hair length relative to control [1]: +32% |
| GGIRVAATGKER (Glycine max) [SEQ ID NO: 608] |  |  |  |  | Increased | increased |  |
| GGIRDAPTGNER [SEQ ID NO: 752] |  |  |  |  | Increased | increased |  |
| GGARAAPAGEER (Brachypodium distachyon) [SEQ ID NO: 747] | 0.137 | 0.959 | (99% of UTC) | (152% of UTC) | Increased | did not improve |  |
| DRLSSGKRINSAKDDAAGLAIA (listed as Bacillus thuringiensis) [Bt.4Q7Flg22Syn01, Modified FLG22-Bt4Q7 (S13K)] |  |  |  |  |  |  | total increased yield (kg) per tree [9]: 26%; Brix [12]: 9.4; juice content [12]: 46% |
| GGIRAARTGNER [SEQ ID NO: 753] |  |  |  |  | Increased | increased |  |
| GGIRRARTGNE (listed as Vigna radiata) [SEQ ID NO: 750] | 0.147 |  | (107% of UTC) |  | Increased | increased |  |
| GGIRATPTENER (Glycine max) [SEQ ID NO: 607] |  |  |  |  | Increased | increased |  |
